# Reference: publication PMC5149019, “Synthesis, Characterization and Cytotoxicity of Alkylated Quercetin Derivatives” (Iranian Journal of Pharmaceutical Research : IJPR, 2016)
# Tests used:
# MCF-7 cells = test: MTT cytotoxicity assay, MCF-7 cells; format: cell-based, human; settings: for IC50: Homo sapiens, MCF7, MCF-7 cells, 48 h exposure, MTT
# Procedure: (§1) Taking solubility of the derivatives into consideration, BQ and GQ were selected for the primary cytotoxicity study. According to the result of the primary cytotoxicity study, the cytotoxicity of GQ on NCI-H446, A549, MGC-803 and SGC-7901 cell lines was further investigated. To justify the effectiveness of BQ and GQ, cytotoxicity of the parent compound quercetin on all the cell lines used in this study was determined either. Briefly, 8000 cells with 0.1 mL medium were seeded in 96-well microplates. The derivatives or quercetin were dissolved in DMSO (50 mM) and then diluted with the medium to a series of testing concentrations. After exposure to the derivatives or quercetin for 48 h, cells were carefully washed by PBS three times and then 0.1 mL MTT (0.5 mg/mL) was added to each well. DMSO was used as solvent for following spectrum analysis at 570 nm. Proliferation values were calculated with the formula as follow: proliferation = (Atest-Ablank)/(Acontrol-Ablank). According to the proliferation data, all IC50 values were calculated by SPSS software using probit regression assay.
# Caco-2 cells = test: MTT cytotoxicity assay, Caco-2 cells; format: cell-based; settings: Homo sapiens, 48 h exposure
# Procedure: as §1
# NCI-H446 = test: MTT cytotoxicity assay, NCI-H446 cells; format: cell-based; settings: Homo sapiens, 48 h exposure
# Procedure: as §1
# A549 = test: MTT cytotoxicity assay, A549 cells; format: cell-based; settings: Homo sapiens, 48 h exposure
# Procedure: as §1
# MGC-803 = test: MTT cytotoxicity assay, MGC-803 cells; format: cell-based; settings: Homo sapiens, 48 h exposure
# Procedure: as §1
# SGC-7901 = test: MTT cytotoxicity assay, SGC-7901 cells; format: cell-based; settings: Homo sapiens, 48 h exposure
# Procedure: as §1
# cancer cells = settings: cited from earlier work
# [1] = Solubility in DMEM medium by turbidimetry; format: physicochemical; settings: turbidimetry at 630 nm; for solubility at 48 h: 37 °C, aqueous buffer, kinetic from dmso stock
# Procedure: Solubility of the derivatives was evaluated by turbidimetry as previously described ([7]). Briefly, derivatives were dissolved in DMSO at a final concentration of 50 mM, and then diluted by DMEM medium at final concentrations of 20, 40, 60, 80, 100, 120, 140, 160, 180 and 200 μM. After these solutions were incubated at 37 ℃ for 48 h, absorbances of them at 630 nm were measured.
# [2] = compared with quercetin, ref [5]
smiles,measurement,setting,value
O=c1c(O)c(-c2ccc(O)c(O)c2)oc2cc(O)cc(O)c12 [Quercetin],IC50,MCF-7 cells,343 µM
same,IC50,Caco-2 cells,340 µM
same,IC50,NCI-H446,68.9 µM
same,IC50,A549,77.2 µM
same,IC50,MGC-803,80.6 µM
same,IC50,SGC-7901,75.7 µM
"CC(=O)Oc1cc(O)c2c(=O)c(OC(C)=O)c(-c3ccc(OC(C)=O)c(OC(C)=O)c3)oc2c1 [3,7,3′,4′-O-tetraacetylquercetin]",cytotoxicity compared with quercetin,cancer cells; [2],about 3 fold
"C=CCOc1cc(O)c2c(=O)c(O)c(-c3ccc(O)c(O)c3)oc2c1 [AQ, 7-O-allylquercetin]",inhibition rate to MCF-7 cells,MCF-7 cells; at the highest concentration,less than 50%
same,solubility at 48 h,[1],~140 µM
"CCCCOc1cc(O)c2c(=O)c(O)c(-c3ccc(O)c(O)c3)oc2c1 [BQ, 7-O-Butylquercetin]",IC50,MCF-7 cells,38.6 µM
same,IC50,Caco-2 cells,66.8 µM
same,solubility at 48 h,[1],~180 µM
"O=c1c(O)c(-c2cc(O)c(O)c(S(=O)(=O)O)c2)oc2c(S(=O)(=O)O)c(O)cc(O)c12 [quercetin-5′,8-disulfonate]",increased cytotoxicity relative to quercetin,"cancer cells; relative to quercetin, ref [4]",about 1.5 fold
"O=c1c(O)c(-c2ccc(O)c(O)c2)oc2cc(OCC=Cc3ccccc3)cc(O)c12 [CQ, 7-O-cinnamylquercetin]",solubility in DMEM medium (in words),"[1]; 37 ℃, 48 h",almost insoluble
"CC(C)=CCC/C(C)=C/COc1cc(O)c2c(=O)c(O)c(-c3ccc(O)c(O)c3)oc2c1 [GQ, 7-O-geranylquercetin]",IC50,MCF-7 cells,20.2 µM
same,IC50,Caco-2 cells,43.7 µM
same,IC50,NCI-H446,27.6 µM
same,IC50,A549,29.5 µM
same,IC50,MGC-803,25.4 µM
same,IC50,SGC-7901,18.5 µM
same,solubility at 48 h,[1],~180 µM
"COc1cc(O)c2c(=O)c(OC)c(-c3ccc(OC)c(OC)c3)oc2c1 [3,7,3′,4′-O-tetramethylquercetin]",cytotoxicity compared with quercetin (in words),cancer cells; [2],decreases the cytotoxicity
